Measured values from patent US20250019387A1 (Frontier Medicines Corporation, priority 0001, published 2025).
pIC50: −log10 of the molar value.

Molecular target: KRAS G12C and cRAF (Ras-binding domain) interaction (Homo sapiens (Human), UniProt P01116, C118S/C51S/C80L/G12C)
Assay: Inhibition of KRAS G12C and cRAF binding (AlphaScreen)
Conditions: additional exemplary compounds; KRAS G12C and cRAF binding; read-out: RAF1 RBD IC50
Outline: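 IC50 values come from 4-parameter nonlinear regression of AlphaScreen signal (680 nm excitation, 570 nm emission). Compound plates sat 19-20 h at room temperature before RBD and donor/acceptor beads were added in Hepes pH 7.4 buffer with 150 mM NaCl, 5 mM MgCl2, 2% DMSO for 60-90 min; biotin-AviTag-GST replaced RBD to flag assay-technology interferers.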

Chain of KRAS G12C and cRAF (Ras-binding domain) interaction (P01116 other isoform, or with tags, fused parts or gaps G12C/C51S/C80L/C118S): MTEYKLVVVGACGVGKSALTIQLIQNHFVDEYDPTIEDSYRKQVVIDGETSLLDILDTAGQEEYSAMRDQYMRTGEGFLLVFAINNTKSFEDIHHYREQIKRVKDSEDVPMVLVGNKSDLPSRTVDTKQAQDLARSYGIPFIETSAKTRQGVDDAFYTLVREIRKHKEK

Row | Compound | pIC50
1 | CN(C)C(=O)/C=C/C(=O)N1CC[C@@H](N(C)c2nc(OCC34CCCN3CCC4)nc3c2CCN(c2cccc4cccc(Cl)c24)C3)C1 | < 6.30
2 | C=CC(=O)CCCCN(C)c1nc(OC[C@@H]2CCCN2C)nc2c1CCN(c1cccc3ccccc13)C2 | 6.30 to 7.00
3 | CN(C)C(=O)/C=C/C(=O)N1CC[C@@H](N(C)c2nc(OCC34CCCN3CCC4)nc3c(F)c(-c4cccc5cccc(Cl)c45)ncc23)C1 | < 6.30
4 | Cc1nccc(/C=C/C(=O)N2[C@@H]3CC[C@H]2CN(c2nc(OC[C@@]45CCCN4C[C@H](F)C5)nc4c(F)c(-c5cccc6cccc(Cl)c56)ncc24)C3)n1 | < 6.30
5 | Cc1nccc(/C=C/C(=O)N2CCN(c3nc(OC[C@@]45CCCN4C[C@H](F)C5)nc4c(F)c(-c5cccc6cccc(Cl)c56)ncc34)C3CC32)n1 (stereo partly shown) | < 6.30
6 | CN(c1nc(OCC23CCCN2CCC3)nc2c(F)c(-c3cccc4cccc(Cl)c34)ncc12)[C@@H]1CCN(C#N)C1 | > 8.00
7 | O=C(/C=C/CN1C2CCC1COC2)N1CCN(c2nc(OC[C@@]34CCCN3C[C@H](F)C4)nc3c(F)c(-c4cccc5cccc(Cl)c45)ncc23)C2CC21 (stereo partly shown) | < 6.30
8 | CN(C)C/C=C/C(=O)N1CC[C@@H](N(C)c2nc(OCC34CCCN3CCC4)nc3c2CCN(c2cccc4cccc(Cl)c24)C3)C1 | 7.00 to 8.00
9 | C=CC(=O)N1CC[C@@H](N(C)c2nc(OC[C@@]34CCCN3C[C@H](F)C4)nc3c(F)c(-c4cccc5cccc(C(F)(F)F)c45)ncc23)C1 | 7.00 to 8.00
10 | COC/C=C/C(=O)N1CC[C@@H](N(C)c2nc(OCC34CCCN3CCC4)nc3c(F)c(-c4cccc5cccc(Cl)c45)ncc23)C1 | 7.00 to 8.00
11 | O=C(/C=C/CN1[C@@H]2CC[C@H]1COC2)N1CCN(c2nc(OC[C@@]34CCCN3C[C@H](F)C4)nc3c(F)c(-c4cccc5cccc(Cl)c45)ncc23)CC12CC2 | < 6.30
12 | CN(CC1CN(C#N)C1)c1nc(OCC23CCCN2CCC3)nc2c1CCN(c1cccc3cccc(Cl)c13)C2 | 6.30 to 7.00
13 | O=C(/C=C/CN1[C@@H]2CC[C@H]1COC2)N1CCN(c2nc(OC[C@@]34CCCN3C[C@H](F)C4)nc3c(F)c(-c4cccc5cccc(Cl)c45)ncc23)C2(CC2)C1 | < 6.30
14 | C=CS(=O)(=O)CCN(C)c1nc(OCC23CCCN2CCC3)nc2c(F)c(-c3cccc4cccc(Cl)c34)ncc12 | > 8.00
15 | C#Cc1c(F)ccc2cccc(-c3ncc4c(N(C)[C@@H]5CCN(C(=O)/C=C/c6ccncc6)C5)nc(OC[C@@]56CCCN5C[C@H](F)C6)nc4c3F)c12 | < 6.30
16 | C#Cc1c(F)ccc2cccc(-c3ncc4c(N(C)[C@@H]5CCN(C(=O)/C=C/c6ccccn6)C5)nc(OC[C@@]56CCCN5C[C@H](F)C6)nc4c3F)c12 | < 6.30
17 | C=CC(=O)N1CC[C@@H](N(C)c2nc(OCC34CCCN3CCC4)nc3c(F)c(-c4cccc5cccc(Cl)c45)ncc23)C1 | 6.30 to 7.00
18 | C#Cc1c(F)ccc2cccc(-c3ncc4c(N(C)[C@@H]5CCN(C(=O)/C=C/c6cccnc6)C5)nc(OC[C@@]56CCCN5C[C@H](F)C6)nc4c3F)c12 | < 6.30
19 | C=CC(=O)N1CC[C@@H](N(C)c2nc(OC[C@@]34CCCN3C[C@H](F)C4)nc3c2CCN(c2cccc4cccc(Cl)c24)C3)C1 | 6.30 to 7.00
20 | C=CC(=O)N1CC[C@@H](C)[C@@H](Nc2nc(OC[C@@]34CCCN3C[C@H](F)C4)nc3c(F)c(-c4cccc5cccc(Cl)c45)ncc23)C1 | < 6.30
21 | C=CS(=O)(=O)C1CCCN(c2nc(OCC34CCCN3CCC4)nc3c2CCN(c2cccc4cccc(Cl)c24)C3)C1 (stereo not shown) | 7.00 to 8.00
22 | C=CC(=O)N1CCC[C@@H](Nc2nc(OC[C@@]34CCCN3C[C@H](F)C4)nc3c(F)c(-c4cccc5cccc(Cl)c45)ncc23)C1 | < 6.30
23 | C=CC(=O)N1CC2CC(Nc3nc(OC[C@@]45CCCN4C[C@H](F)C5)nc4c(F)c(-c5cccc6cccc(Cl)c56)ncc34)C1C2 (stereo partly shown) | < 6.30
24 | CN(C)C/C=C/C(=O)N1CC[C@@H](N(C)c2nc(OC[C@@H]3CCCN3C)nc3c2CCN(c2cccc4cccc(Cl)c24)C3)C1 | 6.30 to 7.00
25 | C=CC(=O)N1C[C@@H](C)C[C@@H](Nc2nc(OC[C@@]34CCCN3C[C@H](F)C4)nc3c(F)c(-c4cccc5cccc(Cl)c45)ncc23)C1 | < 6.30
